Data: US20250064941A1, “SIGLEC LIGANDS, CONJUGATES, AND METHODS OF USE THEREOF” (Osprey Biopharmaceuticals, Inc., priority 2023, published 2025)

What was measured:
[1] = biological target: T1, mouse Siglec-2-Fc-Avi (CD22) (Mus musculus, UniProt P35329); assay: SPR binding affinity to mouse CD22; conditions: steady-state analysis
T1 construct: made in house
T1 sequence (P35329 22-708 limits assumed): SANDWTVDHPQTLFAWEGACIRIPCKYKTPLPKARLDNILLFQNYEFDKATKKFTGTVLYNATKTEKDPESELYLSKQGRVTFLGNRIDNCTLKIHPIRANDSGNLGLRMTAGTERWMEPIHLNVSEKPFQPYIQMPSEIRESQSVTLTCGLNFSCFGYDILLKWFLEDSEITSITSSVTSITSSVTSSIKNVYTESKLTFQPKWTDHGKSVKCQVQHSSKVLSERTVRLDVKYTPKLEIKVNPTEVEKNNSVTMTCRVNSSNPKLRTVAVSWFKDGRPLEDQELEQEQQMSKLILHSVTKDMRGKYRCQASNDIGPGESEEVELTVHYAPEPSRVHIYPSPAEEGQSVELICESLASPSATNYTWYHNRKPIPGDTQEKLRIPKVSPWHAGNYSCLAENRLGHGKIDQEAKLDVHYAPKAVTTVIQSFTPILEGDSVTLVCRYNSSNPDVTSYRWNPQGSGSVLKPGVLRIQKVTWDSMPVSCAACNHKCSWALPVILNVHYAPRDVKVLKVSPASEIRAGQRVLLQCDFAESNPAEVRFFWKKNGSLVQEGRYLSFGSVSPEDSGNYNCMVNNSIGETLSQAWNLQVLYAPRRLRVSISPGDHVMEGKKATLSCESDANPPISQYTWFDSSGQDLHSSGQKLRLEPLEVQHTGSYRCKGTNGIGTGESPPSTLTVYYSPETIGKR
Summary of the method: (§1)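 Native sialic acid residues are removed from the receptor enzymatically (4 hours at 37° C.) prior to streptavidin capture of the biotinylated protein. Ligand compounds then flow over in HEPES-buffered saline, pH 7.5, containing 0.05% Tween-20 and 1% DMSO, and binding is evaluated at steady state.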

[2] = biological target: T2, human Siglec-2/CD22 protein (Homo sapiens, UniProt P20273); assay: SPR binding affinity to human CD22; conditions: steady-state analysis
T2 construct: purchased Acro Biosystems SI2-H82E3
T2 sequence (P20273 20-847): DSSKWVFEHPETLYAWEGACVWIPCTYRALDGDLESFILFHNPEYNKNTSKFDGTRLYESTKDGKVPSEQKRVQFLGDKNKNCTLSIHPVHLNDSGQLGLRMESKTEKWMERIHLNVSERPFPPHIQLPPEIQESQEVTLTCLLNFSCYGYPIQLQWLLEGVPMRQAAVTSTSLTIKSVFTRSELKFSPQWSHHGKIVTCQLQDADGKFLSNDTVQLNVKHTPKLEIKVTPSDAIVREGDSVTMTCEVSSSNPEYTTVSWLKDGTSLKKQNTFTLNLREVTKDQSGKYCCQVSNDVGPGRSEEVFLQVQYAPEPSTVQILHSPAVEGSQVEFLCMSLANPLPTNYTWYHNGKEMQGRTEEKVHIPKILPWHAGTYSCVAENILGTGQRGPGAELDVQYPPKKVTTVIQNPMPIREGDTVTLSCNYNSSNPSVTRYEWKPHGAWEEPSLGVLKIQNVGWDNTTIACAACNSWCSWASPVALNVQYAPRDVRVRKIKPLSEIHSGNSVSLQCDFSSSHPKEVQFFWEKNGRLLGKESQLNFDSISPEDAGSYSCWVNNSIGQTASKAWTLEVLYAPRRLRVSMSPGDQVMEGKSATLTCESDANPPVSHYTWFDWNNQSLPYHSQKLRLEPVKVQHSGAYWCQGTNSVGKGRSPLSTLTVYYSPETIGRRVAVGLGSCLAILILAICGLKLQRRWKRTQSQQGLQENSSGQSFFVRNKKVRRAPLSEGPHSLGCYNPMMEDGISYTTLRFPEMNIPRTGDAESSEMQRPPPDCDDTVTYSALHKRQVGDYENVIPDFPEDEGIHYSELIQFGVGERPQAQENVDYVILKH
Summary of the method: as §1

[3] = biological target: cynomolgus Siglec-2/CD22 (Macaca fascicularis, UniProt A0A2K5WCZ6); assay: biochemical; format: binding; conditions: SPR, steady-state analysis; read-out: Affinity cyno CD22
Summary of the method: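 Compound binding measured by steady-state SPR analysis, 120 s dissociation, in HEPES-NaCl-Tween buffer pH 7.5 containing 1% DMSO, DMSO solvent-corrected. Surface: cyno CD22, sialic acids first stripped by SialoExo for 4 h at 37° C., then amine-coupled onto CM5.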

Sequence of cynomolgus Siglec-2/CD22 (A0A2K5WCZ6 entry or part of it): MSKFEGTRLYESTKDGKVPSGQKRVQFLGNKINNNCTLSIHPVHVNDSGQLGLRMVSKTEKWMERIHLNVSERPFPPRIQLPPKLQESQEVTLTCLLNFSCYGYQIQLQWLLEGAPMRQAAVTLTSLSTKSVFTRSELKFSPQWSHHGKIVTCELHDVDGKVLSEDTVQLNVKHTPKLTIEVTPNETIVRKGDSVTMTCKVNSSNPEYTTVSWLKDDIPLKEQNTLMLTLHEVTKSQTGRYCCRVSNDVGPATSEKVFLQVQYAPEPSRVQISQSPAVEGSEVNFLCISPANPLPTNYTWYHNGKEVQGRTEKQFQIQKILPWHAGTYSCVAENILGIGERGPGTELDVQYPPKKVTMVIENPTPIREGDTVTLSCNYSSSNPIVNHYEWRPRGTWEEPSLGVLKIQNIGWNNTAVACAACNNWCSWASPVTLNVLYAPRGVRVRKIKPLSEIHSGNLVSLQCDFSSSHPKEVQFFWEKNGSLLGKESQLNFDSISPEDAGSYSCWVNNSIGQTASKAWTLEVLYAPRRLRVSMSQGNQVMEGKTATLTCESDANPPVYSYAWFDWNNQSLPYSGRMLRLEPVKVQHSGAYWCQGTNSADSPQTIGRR

| SMILES | Kd [1] [nM] | Kd [2] [nM] | Kd [3] [nM] |
| --- | --- | --- | --- |
| C#Cc1ccc(CO[C@]2(C(=O)O)C[C@H](O)[C@@H](NC(=O)CO)[C@H]([C@H](O)[C@H](O)CNC(=O)Cc3ccc(Cl)cc3)O2)cc1 [Compound 114, (2R,4S,5R,6R)-6-((1R,2R)-3-(2-(4-chlorophenyl)acetamido)-1,2-dihydroxypropyl)-2-((4-ethynylbenzyl)oxy)-4-hydroxy-5-(2-hydroxyacetamido)tetrahydro-2H-pyran-2-carboxylic acid] | < 1000 | < 1000 | < 1000 |
| O=C(Cc1ccc(Cl)cc1)NC[C@@H](O)[C@@H](O)[C@@H]1O[C@@](SCc2cccc(C(=O)O)c2)(C(=O)O)C[C@H](O)[C@H]1NC(=O)CO [Compound 116, (2S,4S,5R,6R)-2-((3-carboxybenzyl)thio)-6-((1R,2R)-3-(2-(4-chlorophenyl)acetamido)-1,2-dihydroxypropyl)-4-hydroxy-5-(2-hydroxyacetamido)tetrahydro-2H-pyran-2-carboxylic acid] | 1000 to 10000 | < 1000 | < 1000 |
| O=C(O)CCCO[C@]1(C(=O)O)C[C@H](O)[C@@H](NC(=O)CO)[C@H]([C@H](O)[C@H](O)CNC(=O)Cc2ccc(Cl)cc2)O1 [Compound 118, (2R,4S,5R,6R)-2-(3-carboxypropoxy)-6-((1R,2R)-3-(2-(4-chlorophenyl)acetamido)-1,2-dihydroxypropyl)-4-hydroxy-5-(2-hydroxyacetamido)tetrahydro-2H-pyran-2-carboxylic acid] | > 10000 | 1000 to 10000 | 1000 to 10000 |
| C#CCCCCCCc1cn([C@]2(C(=O)O)C[C@H](O)[C@@H](NC(=O)CO)[C@H]([C@H](O)[C@H](O)CNC(=O)Cc3ccc(Cl)cc3)O2)nn1 [Compound 119, (2R,4S,5R,6R)-6-((1R,2R)-3-(2-(4-chlorophenyl)acetamido)-1,2-dihydroxypropyl)-4-hydroxy-5-(2-hydroxyacetamido)-2-(4-(oct-7-yn-1-yl)-1H-1,2,3-triazol-1-yl)tetrahydro-2H-pyran-2-carboxylic acid] | 1000 to 10000 | 1000 to 10000 | 1000 to 10000 |
| C#CCCOc1ccc(CS[C@]2(C(=O)O)C[C@H](O)[C@@H](NC(=O)CO)[C@H]([C@H](O)[C@H](O)CNC(=O)Cc3cccc(Cl)c3)O2)cc1 [Compound 120, (2S,4S,5R,6R)-2-((4-(but-3-yn-1-yloxy)benzyl)thio)-6-((1R,2R)-3-(2-(3-chlorophenyl)acetamido)-1,2-dihydroxypropyl)-4-hydroxy-5-(2-hydroxyacetamido)tetrahydro-2H-pyran-2-carboxylic acid] | 1000 to 10000 | < 1000 | < 1000 |
| O=C(O)CCCCCO[C@]1(C(=O)O)C[C@H](O)[C@@H](NC(=O)CO)[C@H]([C@H](O)[C@H](O)CNC(=O)Cc2ccc(Cl)cc2)O1 [Compound 121, (2R,4S,5R,6R)-2-((5-carboxypentyl)oxy)-6-((1R,2R)-3-(2-(4-chlorophenyl)acetamido)-1,2-dihydroxypropyl)-4-hydroxy-5-(2-hydroxyacetamido)tetrahydro-2H-pyran-2-carboxylic acid] | 1000 to 10000 | < 1000 | < 1000 |
| C#CCCOc1ccc(CS[C@]2(C(=O)O)C[C@H](O)[C@@H](NC(=O)CO)[C@H]([C@H](O)[C@H](O)CNC(=O)Cc3ccc(Cl)cc3)O2)cc1 [Compound 122, (2S,4S,5R,6R)-2-((4-(but-3-yn-1-yloxy)benzyl)thio)-6-((1R,2R)-3-(2-(4-chlorophenyl)acetamido)-1,2-dihydroxypropyl)-4-hydroxy-5-(2-hydroxyacetamido)tetrahydro-2H-pyran-2-carboxylic acid] | < 1000 | < 1000 | < 1000 |
| C#CCCOc1ccc(CO[C@]2(C(=O)O)C[C@H](O)[C@@H](NC(=O)CO)[C@H]([C@H](O)[C@H](O)CNC(=O)Cc3cccc(Cl)c3)O2)cc1 [Compound 123, (2R,4S,5R,6R)-2-((4-(but-3-yn-1-yloxy)benzyl)oxy)-6-((1R,2R)-3-(2-(3-chlorophenyl)acetamido)-1,2-dihydroxypropyl)-4-hydroxy-5-(2-hydroxyacetamido)tetrahydro-2H-pyran-2-carboxylic acid] | 1000 to 10000 | < 1000 | < 1000 |
| C#CCCOc1ccc(CO[C@]2(C(=O)O)C[C@H](O)[C@@H](NC(=O)CO)[C@H]([C@H](O)[C@H](O)CNC(=O)Cc3ccc(Cl)cc3)O2)cc1 [Compound 124, (2R,4S,5R,6R)-2-((4-(but-3-yn-1-yloxy)benzyl)oxy)-6-((1R,2R)-3-(2-(4-chlorophenyl)acetamido)-1,2-dihydroxypropyl)-4-hydroxy-5-(2-hydroxyacetamido)tetrahydro-2H-pyran-2-carboxylic acid] | < 1000 | < 1000 | 1000 to 10000 |
| C#CCOCCOCCO[C@]1(C(=O)O)C[C@H](O)[C@@H](NC(=O)CO)[C@H]([C@H](O)[C@H](O)CNC(=O)Cc2cccc(Cl)c2)O1 [Compound 125, (2R,4S,5R,6R)-6-((1R,2R)-3-(2-(3-chlorophenyl)acetamido)-1,2-dihydroxypropyl)-4-hydroxy-5-(2-hydroxyacetamido)-2-(2-(2-(prop-2-yn-1-yloxy)ethoxy)ethoxy)tetrahydro-2H-pyran-2-carboxylic acid] | 1000 to 10000 | < 1000 | 1000 to 10000 |
| C#CCOCCOCCO[C@]1(C(=O)O)C[C@H](O)[C@@H](NC(=O)CO)[C@H]([C@H](O)[C@H](O)CNC(=O)Cc2ccc(Cl)cc2)O1 [Compound 126, (2R,4S,5R,6R)-6-((1R,2R)-3-(2-(4-chlorophenyl)acetamido)-1,2-dihydroxypropyl)-4-hydroxy-5-(2-hydroxyacetamido)-2-(2-(2-(prop-2-yn-1-yloxy)ethoxy)ethoxy)tetrahydro-2H-pyran-2-carboxylic acid] | 1000 to 10000 | 1000 to 10000 | 1000 to 10000 |
| C#CCOCCCCCCO[C@]1(C(=O)O)C[C@H](O)[C@@H](NC(=O)CO)[C@H]([C@H](O)[C@H](O)CNC(=O)Cc2ccc(Cl)c(C(F)(F)F)c2)O1 [Compound 127, (2R,4S,5R,6R)-6-((1R,2R)-3-(2-(4-chloro-3-(trifluoromethyl)phenyl)acetamido)-1,2-dihydroxypropyl)-4-hydroxy-5-(2-hydroxyacetamido)-2-((6-(prop-2-yn-1-yloxy)hexyl)oxy)tetrahydro-2H-pyran-2-carboxylic acid] | 1000 to 10000 | < 1000 | < 1000 |
| C#CCOCCCCCCO[C@]1(C(=O)O)C[C@H](O)[C@@H](NC(=O)CO)[C@H]([C@H](O)[C@H](O)CNC(=O)Cc2ccc(Cl)c(O)c2)O1 [Compound 128, (2R,4S,5R,6R)-6-((1R,2R)-3-(2-(4-chloro-3-hydroxyphenyl)acetamido)-1,2-dihydroxypropyl)-4-hydroxy-5-(2-hydroxyacetamido)-2-((6-(prop-2-yn-1-yloxy)hexyl)oxy)tetrahydro-2H-pyran-2-carboxylic acid] | < 1000 | < 1000 | < 1000 |
